Results from ChEMBL document CHEMBL1145498, “A systematic interaction map of validated kinase inhibitors with Ser/Thr kinases” (Proc Natl Acad Sci U S A, 2007).

Assays:
[1] = target: Serine/threonine-protein kinase 16 (Homo sapiens) (UniProt O75716)
[2] = target: Cyclin-dependent kinase 16 (Homo sapiens) (UniProt Q00536)
[3] = target: Cyclin-dependent kinase 6 (Homo sapiens) (UniProt Q00534)
[4] = target: Calcium/calmodulin-dependent protein kinase type II subunit delta (Homo sapiens) (UniProt Q13557)
[5] = target: Cyclin-dependent kinase 2 (Homo sapiens, UniProt P24941)
[6] = target: Casein kinase I isoform gamma-1 (Homo sapiens) (UniProt Q9HCP0)
Sequence of Casein kinase I isoform gamma-1 (Homo sapiens) (Q9HCP0 whole entry, looked up, canonical isoform): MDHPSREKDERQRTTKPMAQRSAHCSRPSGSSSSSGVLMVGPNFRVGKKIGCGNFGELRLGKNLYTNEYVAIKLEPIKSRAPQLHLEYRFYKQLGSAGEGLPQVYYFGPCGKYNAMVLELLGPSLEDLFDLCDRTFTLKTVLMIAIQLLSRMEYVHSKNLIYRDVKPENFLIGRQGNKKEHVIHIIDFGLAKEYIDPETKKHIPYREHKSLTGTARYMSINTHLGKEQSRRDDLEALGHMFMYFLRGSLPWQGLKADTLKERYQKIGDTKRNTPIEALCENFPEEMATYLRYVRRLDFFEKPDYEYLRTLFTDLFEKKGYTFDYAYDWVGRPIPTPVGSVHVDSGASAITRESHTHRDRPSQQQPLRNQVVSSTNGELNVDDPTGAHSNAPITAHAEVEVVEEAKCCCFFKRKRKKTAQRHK

[7] = target: Dual specificity protein kinase CLK2 (Homo sapiens) (UniProt P49760)
Sequence of Dual specificity protein kinase CLK2 (Homo sapiens) (P49760 whole entry, looked up): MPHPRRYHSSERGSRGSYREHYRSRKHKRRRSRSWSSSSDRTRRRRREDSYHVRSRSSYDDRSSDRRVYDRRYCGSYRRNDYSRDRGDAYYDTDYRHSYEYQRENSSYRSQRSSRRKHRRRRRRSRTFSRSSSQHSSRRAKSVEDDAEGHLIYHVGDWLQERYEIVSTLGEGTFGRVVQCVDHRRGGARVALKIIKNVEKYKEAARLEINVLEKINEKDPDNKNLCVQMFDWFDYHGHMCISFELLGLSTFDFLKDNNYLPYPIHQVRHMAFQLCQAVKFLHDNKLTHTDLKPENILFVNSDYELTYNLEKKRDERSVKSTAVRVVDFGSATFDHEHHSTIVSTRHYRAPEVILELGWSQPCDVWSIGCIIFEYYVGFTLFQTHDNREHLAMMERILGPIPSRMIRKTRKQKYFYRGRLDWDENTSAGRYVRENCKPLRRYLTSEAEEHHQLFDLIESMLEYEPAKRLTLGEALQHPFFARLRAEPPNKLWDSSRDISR

[8] = target: T1, Serine/threonine-protein kinase VRK1 (Homo sapiens) (UniProt Q99986)
T1 sequence (whole entry): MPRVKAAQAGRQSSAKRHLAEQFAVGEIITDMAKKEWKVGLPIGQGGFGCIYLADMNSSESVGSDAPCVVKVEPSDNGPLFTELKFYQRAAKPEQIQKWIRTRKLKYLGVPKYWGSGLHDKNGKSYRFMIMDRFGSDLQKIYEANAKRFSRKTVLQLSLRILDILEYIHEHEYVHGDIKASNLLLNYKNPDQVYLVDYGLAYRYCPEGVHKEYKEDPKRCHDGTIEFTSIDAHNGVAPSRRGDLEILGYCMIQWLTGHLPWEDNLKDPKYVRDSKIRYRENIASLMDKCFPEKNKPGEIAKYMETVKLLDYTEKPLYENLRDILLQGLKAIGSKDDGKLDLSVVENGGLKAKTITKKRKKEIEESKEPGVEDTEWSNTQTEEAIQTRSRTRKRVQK

[9] = target: T2, Serine/threonine-protein kinase PLK4 (Homo sapiens) (UniProt O00444)
T2 sequence (whole entry): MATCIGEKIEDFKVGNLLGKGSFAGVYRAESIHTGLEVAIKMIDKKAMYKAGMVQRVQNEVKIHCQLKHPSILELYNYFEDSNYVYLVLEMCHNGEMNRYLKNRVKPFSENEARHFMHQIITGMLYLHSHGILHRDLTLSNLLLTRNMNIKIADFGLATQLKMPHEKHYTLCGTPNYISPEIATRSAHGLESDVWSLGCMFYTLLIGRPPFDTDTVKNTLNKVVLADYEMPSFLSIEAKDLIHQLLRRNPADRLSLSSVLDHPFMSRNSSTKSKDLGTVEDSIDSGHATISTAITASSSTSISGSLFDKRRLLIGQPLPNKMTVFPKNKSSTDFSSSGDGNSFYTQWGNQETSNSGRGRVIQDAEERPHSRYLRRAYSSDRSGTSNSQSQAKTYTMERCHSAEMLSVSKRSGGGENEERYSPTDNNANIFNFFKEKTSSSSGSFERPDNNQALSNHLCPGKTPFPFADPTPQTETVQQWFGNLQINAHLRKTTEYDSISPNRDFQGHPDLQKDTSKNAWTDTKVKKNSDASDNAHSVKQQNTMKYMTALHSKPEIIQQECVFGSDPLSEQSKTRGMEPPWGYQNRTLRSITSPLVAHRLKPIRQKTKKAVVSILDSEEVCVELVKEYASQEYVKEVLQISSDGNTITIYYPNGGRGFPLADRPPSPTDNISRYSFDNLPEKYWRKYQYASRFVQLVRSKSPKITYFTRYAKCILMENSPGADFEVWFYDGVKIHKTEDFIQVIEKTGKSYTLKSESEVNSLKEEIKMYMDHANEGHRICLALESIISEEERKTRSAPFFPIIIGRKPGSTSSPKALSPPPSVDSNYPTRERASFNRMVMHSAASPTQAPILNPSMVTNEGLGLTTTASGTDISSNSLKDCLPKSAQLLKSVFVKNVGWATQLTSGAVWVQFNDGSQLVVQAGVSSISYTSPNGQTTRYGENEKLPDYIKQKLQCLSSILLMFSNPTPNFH

[10] = target: Serine/threonine-protein kinase pim-3 (Homo sapiens) (UniProt Q86V86)
[11] = target: Serine/threonine-protein kinase VRK2 (Homo sapiens) (UniProt Q86Y07)
[12] = target: TRAF2 and NCK-interacting protein kinase (Homo sapiens) (UniProt Q9UKE5)
Sequence of TRAF2 and NCK-interacting protein kinase (Homo sapiens) (Q9UKE5 whole entry, looked up): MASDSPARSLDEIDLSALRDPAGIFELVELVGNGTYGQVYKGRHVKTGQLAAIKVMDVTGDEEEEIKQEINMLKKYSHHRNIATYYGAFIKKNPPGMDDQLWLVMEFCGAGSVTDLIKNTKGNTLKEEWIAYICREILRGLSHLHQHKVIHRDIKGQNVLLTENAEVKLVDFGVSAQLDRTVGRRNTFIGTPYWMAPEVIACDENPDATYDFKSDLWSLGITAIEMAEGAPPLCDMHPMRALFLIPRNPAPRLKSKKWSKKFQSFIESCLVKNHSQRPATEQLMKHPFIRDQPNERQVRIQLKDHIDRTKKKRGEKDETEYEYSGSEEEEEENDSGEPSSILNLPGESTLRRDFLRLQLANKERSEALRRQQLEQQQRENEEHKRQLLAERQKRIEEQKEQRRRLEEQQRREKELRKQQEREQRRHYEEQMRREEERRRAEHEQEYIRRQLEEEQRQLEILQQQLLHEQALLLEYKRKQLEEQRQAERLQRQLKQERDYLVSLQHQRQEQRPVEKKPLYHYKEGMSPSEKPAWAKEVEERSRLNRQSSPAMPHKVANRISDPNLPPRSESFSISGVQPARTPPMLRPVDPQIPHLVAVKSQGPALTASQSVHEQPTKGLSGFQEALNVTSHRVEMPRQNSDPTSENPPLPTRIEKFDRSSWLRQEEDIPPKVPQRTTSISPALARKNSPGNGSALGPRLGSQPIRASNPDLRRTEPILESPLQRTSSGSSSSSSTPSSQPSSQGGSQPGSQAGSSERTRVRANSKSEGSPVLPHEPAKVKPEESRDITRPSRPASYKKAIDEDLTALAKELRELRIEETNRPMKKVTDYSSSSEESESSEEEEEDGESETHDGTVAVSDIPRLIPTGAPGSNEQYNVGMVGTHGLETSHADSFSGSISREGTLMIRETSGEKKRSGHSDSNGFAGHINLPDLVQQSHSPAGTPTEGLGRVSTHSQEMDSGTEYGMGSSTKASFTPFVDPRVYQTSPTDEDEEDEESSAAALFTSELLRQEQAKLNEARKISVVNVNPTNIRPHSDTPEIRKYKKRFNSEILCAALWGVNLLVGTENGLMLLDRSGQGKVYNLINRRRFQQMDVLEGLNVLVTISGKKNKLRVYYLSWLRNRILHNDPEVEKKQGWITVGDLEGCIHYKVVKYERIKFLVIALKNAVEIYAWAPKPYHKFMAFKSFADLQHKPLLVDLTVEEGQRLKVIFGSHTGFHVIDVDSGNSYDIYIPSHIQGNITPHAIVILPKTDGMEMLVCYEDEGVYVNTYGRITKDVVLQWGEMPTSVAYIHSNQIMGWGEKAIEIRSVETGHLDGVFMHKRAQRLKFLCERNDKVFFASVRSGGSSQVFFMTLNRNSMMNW

[13] = target: Mitogen-activated protein kinase 11 (Homo sapiens, UniProt Q15759)
Sequence of Mitogen-activated protein kinase 11 (Q15759 whole entry): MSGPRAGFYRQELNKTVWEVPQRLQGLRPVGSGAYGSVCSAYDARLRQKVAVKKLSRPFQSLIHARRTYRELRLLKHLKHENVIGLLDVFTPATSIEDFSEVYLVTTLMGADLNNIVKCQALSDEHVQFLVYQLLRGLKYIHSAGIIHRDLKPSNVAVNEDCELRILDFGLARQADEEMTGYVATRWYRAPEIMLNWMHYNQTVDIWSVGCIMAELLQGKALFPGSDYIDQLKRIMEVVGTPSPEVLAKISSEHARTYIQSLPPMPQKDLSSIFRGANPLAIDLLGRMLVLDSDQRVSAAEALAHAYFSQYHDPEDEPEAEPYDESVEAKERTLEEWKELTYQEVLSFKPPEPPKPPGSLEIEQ

[14] = target: Death-associated protein kinase 3 (Homo sapiens) (UniProt O43293)
Sequence of Death-associated protein kinase 3 (Homo sapiens) (O43293 whole entry, looked up): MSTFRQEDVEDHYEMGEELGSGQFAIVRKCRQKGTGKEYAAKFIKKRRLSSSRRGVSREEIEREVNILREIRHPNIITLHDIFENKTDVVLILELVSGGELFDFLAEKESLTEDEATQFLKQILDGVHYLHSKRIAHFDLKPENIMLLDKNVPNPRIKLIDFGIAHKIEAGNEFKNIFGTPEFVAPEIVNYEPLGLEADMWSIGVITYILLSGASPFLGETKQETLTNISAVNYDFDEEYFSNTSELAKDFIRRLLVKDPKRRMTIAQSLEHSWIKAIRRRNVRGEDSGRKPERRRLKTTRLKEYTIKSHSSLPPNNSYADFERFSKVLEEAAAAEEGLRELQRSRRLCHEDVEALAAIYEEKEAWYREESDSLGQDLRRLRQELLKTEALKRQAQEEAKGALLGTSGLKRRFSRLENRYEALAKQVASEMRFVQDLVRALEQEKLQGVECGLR

[15] = target: Mitogen-activated protein kinase 6 (Homo sapiens) (UniProt Q16659)
[16] = target: Calcium/calmodulin-dependent protein kinase type 1D (Homo sapiens) (UniProt Q8IU85)
Sequence of Calcium/calmodulin-dependent protein kinase type 1D (Homo sapiens) (Q8IU85 whole entry, looked up): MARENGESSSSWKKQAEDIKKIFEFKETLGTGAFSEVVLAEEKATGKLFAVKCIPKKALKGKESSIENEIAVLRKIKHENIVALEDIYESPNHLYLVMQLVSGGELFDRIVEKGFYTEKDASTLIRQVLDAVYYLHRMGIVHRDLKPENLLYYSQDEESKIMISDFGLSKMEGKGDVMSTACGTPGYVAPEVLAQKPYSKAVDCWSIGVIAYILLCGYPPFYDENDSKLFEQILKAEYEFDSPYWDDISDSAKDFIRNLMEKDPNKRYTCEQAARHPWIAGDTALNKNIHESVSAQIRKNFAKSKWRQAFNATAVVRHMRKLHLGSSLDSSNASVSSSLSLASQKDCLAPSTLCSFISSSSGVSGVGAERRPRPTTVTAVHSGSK

Sequence of Cyclin-dependent kinase 6 (Homo sapiens) (Q00534 whole entry): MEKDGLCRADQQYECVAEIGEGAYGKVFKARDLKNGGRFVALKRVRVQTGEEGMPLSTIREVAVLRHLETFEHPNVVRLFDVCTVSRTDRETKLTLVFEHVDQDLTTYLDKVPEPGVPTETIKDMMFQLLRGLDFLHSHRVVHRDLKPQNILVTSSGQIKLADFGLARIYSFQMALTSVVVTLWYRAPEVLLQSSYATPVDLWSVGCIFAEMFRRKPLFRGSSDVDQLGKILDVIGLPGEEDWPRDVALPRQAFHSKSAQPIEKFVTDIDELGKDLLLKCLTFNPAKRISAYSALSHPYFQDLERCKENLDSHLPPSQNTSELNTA
Sequence of Cyclin-dependent kinase 16 (Homo sapiens) (Q00536 whole entry): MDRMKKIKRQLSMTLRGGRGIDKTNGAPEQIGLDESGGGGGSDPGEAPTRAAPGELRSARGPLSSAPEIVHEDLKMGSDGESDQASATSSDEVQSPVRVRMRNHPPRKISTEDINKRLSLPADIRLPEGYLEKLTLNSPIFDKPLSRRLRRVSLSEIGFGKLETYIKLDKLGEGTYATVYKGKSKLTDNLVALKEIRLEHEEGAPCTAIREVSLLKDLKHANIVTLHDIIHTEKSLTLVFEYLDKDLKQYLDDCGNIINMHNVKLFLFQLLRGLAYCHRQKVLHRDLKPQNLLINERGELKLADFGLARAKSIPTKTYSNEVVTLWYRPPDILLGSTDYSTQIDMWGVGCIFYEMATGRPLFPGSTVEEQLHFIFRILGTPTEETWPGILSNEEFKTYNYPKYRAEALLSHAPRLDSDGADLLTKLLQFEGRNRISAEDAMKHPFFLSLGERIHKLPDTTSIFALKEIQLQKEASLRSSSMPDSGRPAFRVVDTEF
Sequence of Serine/threonine-protein kinase 16 (Homo sapiens) (O75716 whole entry): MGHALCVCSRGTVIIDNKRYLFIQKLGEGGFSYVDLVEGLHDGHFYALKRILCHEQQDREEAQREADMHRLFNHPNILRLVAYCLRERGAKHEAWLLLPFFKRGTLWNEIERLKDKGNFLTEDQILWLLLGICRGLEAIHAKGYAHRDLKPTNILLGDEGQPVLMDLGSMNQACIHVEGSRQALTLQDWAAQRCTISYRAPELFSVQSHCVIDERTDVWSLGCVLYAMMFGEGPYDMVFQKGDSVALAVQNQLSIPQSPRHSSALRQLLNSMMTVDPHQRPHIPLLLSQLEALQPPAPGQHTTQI

Compound | ΔTm [1] | ΔTm [2] | ΔTm [3] | ΔTm [4] | ΔTm [5] | ΔTm [6] | ΔTm [7] | ΔTm [8] | ΔTm [9] | ΔTm [10] | ΔTm [11] | ΔTm [12] | ΔTm [13] | ΔTm [14] | ΔTm [15] | ΔTm [16]
O=C1NC(=O)C(c2c[nH]c3ccccc23)=C1c1c[nH]c2ccccc12 | 3.5 °C | 1.7 °C | 1.2 °C | 1 °C | 1.5 °C | 0.6 °C | 2.5 °C | 0.8 °C | 4.2 °C | 6.3 °C | 1 °C | 1.2 °C | 0.5 °C | -0.2 °C | 0.5 °C | 0.6 °C
O=C1C=C2C(=Nc3c2c2c(c4c3=NC3=C4CCC=C3)C=NC=2)CC1 | 11.5 °C | 0.8 °C | 2.7 °C | 2 °C | 4 °C | 0.9 °C | 4.2 °C | 1.1 °C | 2.3 °C | 1.7 °C | 4.7 °C | 1.3 °C | 1.2 °C | 3.8 °C | 1.4 °C | 3.6 °C
O=c1cc(-c2ccc(O)cc2)oc2cc(O)cc(O)c12 | 4.8 °C | 1.2 °C | 0.4 °C | 0.7 °C | 2.3 °C | 1.4 °C | 2.8 °C | 0.2 °C | 5.2 °C | 4.6 °C | 0.6 °C | 5.3 °C | 1.7 °C | 3.5 °C | 0.5 °C | 1 °C
N#C/C(=C\c1ccc(O)c(O)c1)C(=O)Nc1ccccc1 | 0.1 °C | -0.5 °C | 0.4 °C | 1 °C | 1.1 °C | 1 °C | 0.9 °C | 0.2 °C | 1.3 °C | 2.8 °C | 0.3 °C | 1 °C | 0.2 °C | 1.4 °C | 0.5 °C | 0.3 °C
N#C/C(=C1/Nc2ccccc2S1)c1ccnc(NCCc2cccnc2)n1 | 5.5 °C | 5.8 °C | 3.5 °C | 2.1 °C | 6.3 °C | 3.7 °C | 4.4 °C | 1.3 °C | 5.2 °C | 10.9 °C | 1.8 °C | 3.4 °C | 2.4 °C | 1.6 °C | 2 °C | 1.4 °C
O=c1c(-c2ccc(O)cc2)coc2cc(O)cc(O)c12 | 4.3 °C | -0.6 °C | 0.1 °C | 1.9 °C | 0.7 °C | 0.8 °C | 0.5 °C | 0.6 °C | 0.4 °C | 3 °C | 0.1 °C | 0.4 °C | 0 °C | 0.5 °C | 1.7 °C | 0.7 °C
CN(C)c1ccc(CC2C(=O)Nc3ccccc32)cc1 (stereo not given) | 1.9 °C | -0.5 °C | 0.8 °C | 0.5 °C | 1 °C | 1.2 °C | 1.7 °C | -0.2 °C | 2.8 °C | 1.2 °C | 0.6 °C | 4.1 °C | 0.3 °C | -0.8 °C | 0.1 °C | 0 °C
O=C1Nc2ccc(I)cc2/C1=C1/Nc2ccccc2/C1=N\O | 1.9 °C | 5.6 °C | 0.8 °C | 3.6 °C | 6.8 °C | 1.5 °C | 2.9 °C | 0.1 °C | 8.7 °C | 6.3 °C | 4.3 °C | 5.2 °C | 1.3 °C | 1.4 °C | 0.5 °C | 0.1 °C
Nc1cc2ncnc(Nc3cccc(Br)c3)c2cc1N | 0.1 °C | -0.4 °C | 0.8 °C | -1.6 °C | 1.4 °C | 0.3 °C | 1.6 °C | -0.3 °C | 1.5 °C | 3.2 °C | 1.2 °C | 0.5 °C | 2.5 °C | 2.1 °C | 0.6 °C | 0.6 °C
O=C1Cc2c([nH]c3ccc([N+](=O)[O-])cc23)-c2ccccc2N1 | 1 °C | 3.8 °C | 1.4 °C | 0 °C | 4.4 °C | 1.4 °C | 0.7 °C | 0.2 °C | 6.9 °C | 2.8 °C | 0.3 °C | 6.1 °C | -0.1 °C | 1.6 °C | 1.2 °C | 0.8 °C
O=C1Nc2ccc(I)cc2/C1=C\c1cc(Br)c(O)c(Br)c1 | 1 °C | -0.4 °C | 0.3 °C | 0.9 °C | 1.2 °C | 0.2 °C | 1.2 °C | 1.7 °C | 1.3 °C | 6 °C | 1.7 °C | 3.9 °C | -0.2 °C | 2.6 °C | 0.4 °C | -0.1 °C
O=c1cc(N2CCOCC2)oc2c(-c3ccccc3)cccc12 | 0.4 °C | 0 °C | 0.5 °C | 0.4 °C | 0.4 °C | 0.6 °C | 0.1 °C | 0.8 °C | 0 °C | 2.8 °C | 0.6 °C | -0.2 °C | -0.3 °C | 1.4 °C | 0.6 °C | 0.3 °C
CN(C)CC1CCn2c(c(C3=C(c4c[nH]c5ccccc45)C(=O)NC3=O)c3ccccc32)C1 (stereo not given) | 1.3 °C | 3 °C | 0.8 °C | 0 °C | 2.5 °C | 0.5 °C | 1.1 °C | 0.5 °C | 0.1 °C | 3.4 °C | 0.7 °C | 0.5 °C | -0.3 °C | 0.5 °C | 0.6 °C | -0.1 °C
CC(C)n1cnc2c(NCc3ccccc3O)nc(NCCCO)nc21 | 1.2 °C | -0.2 °C | 0 °C | -0.1 °C | 1.2 °C | 0.5 °C | 1 °C | 0 °C | 0.1 °C | 0.4 °C | 0.6 °C | 0 °C | 0.1 °C | 0.2 °C | 0 °C | 0 °C
CC(C)(C)c1cc(C=C2C(=O)C=CC2=O)cc(C(C)(C)C)c1O | 0.2 °C | 4.4 °C | -6.6 °C | 2.1 °C | 1.2 °C | 0.9 °C | 0.4 °C | -0.6 °C | 1 °C | 0.4 °C | 0 °C | -3.1 °C | -1.5 °C | -0.4 °C | -0.7 °C | -2.2 °C
